48 compounds from PubChem BioAssay AID743267 (Broad Institute, 2014) can be followed below.

The experiment relates to human bronchial epithelial cells, CFTR corrector, plate reader. The experiment is described as follows: CFTR ΔF508 corrector activity in bronchial cells, dose response, human bronchial epithelial cells, plate reader, cherry-pick, two tests (AID 743267).
Setting [1] is: measured here: test 2 replicate run.
Setting [2] is: measured here: test 1 replicate run.

In the case of `Nc1ccn([C@@H]2O[C@H](CO)[C@@H](O)[C@@H]2O)c(=O)n1`, the AC50 (usually the concentration at which the activity in the assay is half-maximal) under setting [1] was 0.541 µM. `CCN(CC)C(=O)c1oc2ccc(S(=O)(=O)N3CC(C)CC(C)C3)cc2c1C` (stereo not drawn) yielded an AC50 under setting [1] of 10.5 µM. On to `COc1cc(SC)ccc1C(=O)N1CCN(c2ccccc2OC)CC1`, for which, under setting [1], the AC50 came to 6.62 µM. The same measure, in the same setting: under `O=C(N/N=C/c1cccs1)c1cccc(NC(=O)c2ccccc2Cl)c1` stands 0.985 µM; under `COc1ccccc1/C=N/NC(=O)c1cc2c(OC)c(OC)ccc2[nH]1`, 0.802 µM. On the same count and under the same terms, under `COc1cc2c(c(Br)c1N)-c1cc(Br)c(N)cc1C2=O` stands over 50 µM; under `CCC1=Nc2cc(C(=O)NCc3cccnc3)ccc2Sc2ccc(C)cc21`, 6.64 µM; under `O=C1C=C(NCCc2cc(Br)c(O)c(Br)c2)C(=O)c2ncccc21`, 3.33 µM. Still for that read-out and setting: under `COc1nc(C)nc(NC(=O)NS(=O)(=O)c2ccccc2Cl)n1` stands over 50 µM; under `COc1cc(OC)cc(C(=O)N2CC(=O)Nc3ccccc32)c1`, 2.1 µM. `N#CC1=C(N)Oc2cc(N)ccc2C1c1cccc(F)c1` (stereo not drawn) yielded an AC50 under setting [1] of 3.15 µM. The same measure, in the same setting: under `COc1cc2c(cc1OC)C(C)N(C(=O)Nc1cc(C)cc(C)c1)CC2` (stereo not drawn) stands 3.03 µM; under `O=C(CN(Cc1ccco1)Cc1ccco1)Nc1cc(S(=O)(=O)N2CCCCC2)ccc1Cl`, 17.2 µM; under `CCOc1ccc(C(=O)COC(=O)Cc2n[nH]c(=O)c3ccccc23)cc1`, 2.53 µM. Compound `Nc1nn(-c2ccccc2)c(N)c1N=Nc1cccc(F)c1` showed an AC50 under setting [1] of 2.04 µM. Same read-out and setting: in the case of `COc1ccc(C(=O)c2cc([N+](=O)[O-])ccc2N2CCN(C)CC2)cc1` it was 3.74 µM; in that of `CCOc1cc(/C=N/NC(=O)N/N=C/c2ccc(O)c(OCC)c2)ccc1O`, 4.92 µM. Still for that read-out and setting: in the case of `COc1ccccc1NS(=O)(=O)c1cc(N=N/C(C(=O)Nc2ccc(Cl)cc2)=C(/C)O)ccc1C` it was 36.6 µM; in that of `CNC(=O)C1CC(=O)N(c2ccc(OCC(=O)Nc3ccccc3)cc2)C1` (stereo not drawn), over 50 µM. Consider `CCS(=O)(=O)N1CC(=O)N2[C@H](CO)[C@@H](c3ccc(C#CCC(C)C)cc3)[C@@H]2C1`, for which the AC50 under setting [2] is 0.0676 µM.

Under setting [1], `Cc1cc(/C=N/n2c(COc3ccccc3C)nc3ccccc3c2=O)c(O)c([N+](=O)[O-])c1` yielded an AC50 of 5.53 µM. Same read-out and setting: under `COC(=O)c1ccc(C(=O)NC2CCCc3c2cnn3-c2cc(F)cc(F)c2)nc1` (stereo not drawn) stands 8.13 µM.

Compound `N#Cc1ccc(-c2ccc3c(c2)[C@H]2[C@H](CCN2S(=O)(=O)c2ccccc2F)[C@@H](CO)N3)cc1` came in with an AC50 under setting [2] of 6.96 µM. Under setting [1], `CCN(CC)CCC(=O)Nc1cccc2c1C(=O)c1ccccc1C2=O` displayed an AC50 of 2.98 µM. `CC(=O)Nc1cccc(-c2ccnc3c2CC(C)(C(=O)Nc2ccc4c(c2)OCO4)O3)c1` (stereo not drawn): the AC50 under setting [1] turned out to be 0.973 µM. Same read-out and setting: under `CCN(CC)c1ccc(/C=N/NC(=O)c2cnccn2)cc1` stands 2.12 µM.

In turn, `COc1ccc(NC(=O)c2nc(C)c(C3(C)CC(c4cccnc4)=NO3)s2)cc1` (stereo not drawn) showed an AC50 under setting [1] of 2.75 µM. Same read-out and setting: under `O=C(Nc1ccc(Br)cn1)c1cccc2ccccc12` stands 1.97 µM; under `COc1cc(C(=O)Nc2ccc3c(c2)CCN3C(C)=O)cc(OC)c1OC`, 3.56 µM; under `CCN(CC(=O)Nc1c(F)cccc1F)C(=O)C1CC1`, 33.1 µM.

Under setting [1], `COc1ccc(C2=Nn3c(nnc3-c3ccccc3OC)SC2)cc1OC1CCOC1` (stereo not drawn) returned an AC50 of 0.973 µM.

In turn, `COc1ccc(C2C3=C(COC3=O)Oc3cc4c(cc32)OCO4)cc1OC` (stereo not drawn) had an AC50 under setting [1] of 3.72 µM.

In turn, `COc1ccc(S(=O)(=O)N2CC[C@@H]3[C@@H](CO)Nc4ccc(-c5ccc(C#N)cc5)cc4[C@@H]32)cc1` registered an AC50 under setting [2] of 1.57 µM. Take `Cc1nn2cc(-c3cccc(Cl)c3)cnc2c1Br`: the AC50 under setting [1] worked out at 3.81 µM. On the same count and under the same terms, in the case of `CN1/C(=C\C=C2/SC(=S)N(CC(=O)O)C2=O)C(C)(C)c2ccccc21` it was 16 µM. On the same count and under the same terms, under `COC(=O)COc1cccc2c(=O)n(CC(=O)NCc3ccccc3)ccc12` stands 5.25 µM.

Regarding `COc1ccc2noc3c2c1C(=O)c1ccccc1-3`, the AC50 under setting [1] is 19.1 µM. The same measure, in the same setting: under `CC(=O)c1cccc(-c2ccnc3c2CC(C(=O)NCc2ccco2)O3)c1` (stereo not drawn) stands 2.01 µM. Under setting [1], `O=C1/C(=C\c2cc(Cl)c(O)c(Cl)c2)SC(=S)N1Cc1ccccc1` returned a half-maximal activity concentration (AC50) of 3.15 µM. Still for that read-out and setting: in the case of `COc1ccc(Nc2nc(-c3sc(C)nc3C)cs2)cc1` it was 0.272 µM. The compound `COc1ccc(-c2ccc3c(c2)[C@H]2[C@H](CCN2S(=O)(=O)c2ccc(OC)cc2)[C@@H](CO)N3C)cc1` yielded an AC50 under setting [2] of 9.59 µM. `COc1ccc(C)cc1NC(=O)CNC(c1ccccc1)c1ccc(C)cc1` (stereo not drawn): the AC50 under setting [1] is 2.03 µM. For the compound `COc1ccc(CNC(=O)c2cc3c(c(-c4cccc(-c5ccc(C#N)cc5)c4)n2)[C@@H](CCO)N([S@](=O)C(C)(C)C)C3)cc1`, the AC50 under setting [2] is over 50 µM. Under setting [1], `N#CC1=C(N)Oc2c(ccc3cccnc23)C1c1ccccc1` (stereo not drawn) registered an AC50 of 2.97 µM. Same read-out and setting: in the case of `Nc1nc(Cl)nc2c1ncn2C1CC(O)C(CO)O1` (stereo not drawn) it was 2.73 µM; in that of `Cc1ccc(C(=O)NC(=S)NNC(=O)c2ccccc2O)cc1`, over 50 µM. For `CN(Cc1ccccc1)S(=O)(=O)c1ccc(NC(=S)NC(=O)C2CCCC2)cc1`, the AC50 under setting [1] came to 5.32 µM. Same read-out and setting: in the case of `O=C1CCC(CCc2nc3ccccc3[nH]2)(c2ccccc2)C(=O)N1` (stereo not drawn) it was 36.3 µM.
